Measurements: US11147781B2, “Methods for alleviating statin myopathy” (priority 2014, dated 2021)
Where two headings read alike, the source gives them in different places. Each block holds one compound with its values, some of them ahead of it.

What was measured:
[1] = system: patients with statin-induced myopathy (SIM); format: in vivo, human; set-up: triglycerides: unit not given here
Experimental: A clinical study was conducted to evaluate the effects of HMB on patients with statin-induced myopathy (SIM). A total of eighteen patients were evaluated for the study with informed written consent obtained. Of the eighteen patients, fourteen (14) ultimately qualified as having true statin myalgia and were enrolled in the study. All patients enrolled were under the care of a board certified cardiologist.
A summary of the enrolled patients and their outcomes is as follows: • 1. All 14 had type 2a or mixed hyperlipidemia. • 2. All 14 had been treated with multiple statin agents, in each case withdrawing from the statin agent due to myalgia/myopathy. • 3. Of the 14 patients enrolled, 4 had elevated CPKs (creatine phosphokinase, a biomarker for myositis/rhabdomyolysis) secondary to SIM. • 4. Five of the 14 patients had undergone prior percutaneous coronary intervention with stents. • 5. One of the 14 patients had undergone prior coronary bypass surgery. • 6. Four of the 14 patients had angiographically documented moderate coronary artery disease not requiring percutaneous coronary intervention (PCI)/coronary bypass. • 7. Four of the 18 patients were disqualified due to the following: • Patient's leg myalgia was secondary to angiographically proven peripheral vascular disease, not SIM and symptoms were consistent with this diagnosis. • Patient's unilateral leg pain was secondary to neuropathy, not SIM. • Patient complained of GI upset on combined statin+3-hydroxy 3-methybutyrate and medication was discontinued. […] All 14 qualified patients remained on combination statin (in some cases with Zetia to achieve target) plus HMB therapy after the initial duration of the study. As noted, of those who had previously discontinued statin therapy, all had been tried on multiple statin agents without success. • 9. Follow up was conducted with all patients including out-patient visits and phone conversation. • 10.
The free acid form was used in one patient who experienced major CPK elevations (900-1000 IU/L range) and disabling myalgia on statins.
For this study, patients were evaluated using multiple laboratories with variable lab normal ranges, which are included. In the patient population as a whole, the full spectrum of SIM is presented, including statin myalgia […] CPK elevation (myositis or rhabdomyolysis depending on severity), elevation of CPK without myalgia, post-statin elevation of CPK with and without pain, post-statin myalgia without CPK elevation, and, finally, statin-induced muscle weakness without myalgia. Also represented were other statin-induced side effects such as short-term memory loss and glucose intolerance.

[2] = system: acute rhabdomyolysis; test: In-patient treatment of acute rhabdomyolysis with HMB; format: in vivo, human; conditions: HMB free acid (gel form) 6 g twice daily for 3 days, within 3 days
Source text: HMB administration is used to treat acute rhabdomyolysis in an in-patient setting.
Acute rhabdomyolysis is a rare but extreme and potentially life-threatening disorder that can occur in all groups in a setting of dehydration, trauma, and in younger age groups, intense exercise. […] At this time there is no known method of reversing rhabomyolysis apart from bed rest and hydration.
Protocol: measure patient's CPK; if value exceeds 10 times the upper limit of normal (200 IU/L, depending on laboratory-specific established normal range), initiate the following: • 1. Admit to ICU; • 2. Initiate IV 0.9% saline at 165 ml/hour; • 3. Initiate HMB free acid (gel form), dose 6 g twice daily for 3 days; • 4. Lab: CPK, BUN, creatinine, glucose and electrolytes every 12 hours for 3 days.

[3] = free acid form versus calcium monohydrate form; cited from earlier work
[4] = Patient A-1, 3 months, Crestor 10 mg daily + 2 g BID
[5] = Patient F-6, atorvastatin 40 mg + Zetia 10 mg + 2 g BID, 2-month follow-up

CPK under statin ([1]; human, in vivo): 320 IU/L
SMILES: CC(C)c1nc(N(C)S(C)(=O)=O)nc(-c2ccc(F)cc2)c1/C=C/[C@@H](O)C[C@@H](O)CC(=O)O [Crestor®, rosuvastatin, reference compound]

CPK under statin (severe rhabdomyolysis) ([1]; human, in vivo): 900-1000 IU/L
SMILES: CCC(C)(C)C(=O)O[C@H]1C[C@@H](C)C=C2C=C[C@H](C)[C@H](CC[C@@H]3C[C@@H](O)CC(=O)O3)[C@H]21 [simvastatin, reference compound]

SMILES: CC(C)(O)CC(=O)O [HMB free acid]
CPK [2]: below 200 IU/L
CPK ([1]; Patient D-4, free acid 2 gelcaps TID (3 g daily), after ten days, before 378): 257 IU/L
patient-reported state ([1]; Patient D-4, free acid 3 g daily, ten days): felt better
fasting blood glucose ([1]; Patient D-4, free acid 3 g daily, ten days, before >200): 100 mg %
symptoms ([1]; Patient O-15, converted to free acid 1 g TID, three months post-enrollment): completely symptom-free
change in CPK ([1]; free acid gel cap, one patient (D-4) with major CPK elevations on statins): significant decrease
symptoms ([1]; free acid gel cap, one patient (D-4), improvement over calcium monohydrate form): resolution in symptoms
bioavailability [3]: more bioavailable

SMILES: CC(C)(O)CC(=O)[O-].CC(C)(O)CC(=O)[O-].[Ca+2] [calcium HMB monohydrate]
CPK ([1]; Patient A-1, 2 g BID, 9 days later, before HMB 242, range 26-192): 87 IU/L
time to complete resolution of all pain ([1]; Patient A-1, 2 g BID, post-statin myositis, before re-introducing statin): 3 days
CPK [1, 4]: 110 IU/L
LDL [1, 4]: 72 mg/dL
symptoms [1, 4]: asymptomatic
LDL ([1]; Patient B-2, Vytorin 10/40 + 2 g BID, 50 days, before 168): 110 mg %
CPK ([1]; Patient B-2, Vytorin 10/40 + 2 g BID, 50 days, lab normal range 44-196): 173 IU/L
symptoms ([1]; Patient B-2, six months later, on Vytorin): completely asymptomatic
symptoms ([1]; Patient C-3, Crestor 10 mg daily + 2 g BID, three months): completely symptom free
myalgia ([1]; Patient D-4, Crestor 20 mg + Zetia 10 mg + 2 g BID, 37 days): resolved except for very mild discomfort climbing stairs
CPK ([1]; Patient D-4, Crestor 20 mg + Zetia 10 mg + 2 g BID, 37 days, before 705, range 26-192): 277 IU/L
LDL ([1]; Patient D-4, Crestor 20 mg + Zetia 10 mg + 2 g BID, 37 days, before >200 mg %): 49
CPK ([1]; Patient D-4, five months later, diabetes uncontrolled): 378 IU/L
bilateral calf myalgia ([1]; Patient E-5, 2 g BID, post-statin myalgia): resolved rapidly and completely
CPK ([1]; Patient E-5, after HMB treatment 2 g BID, range 39-308): 110 IU/L
myalgia [1, 5]: completely resolved
short term memory loss [1, 5]: improved
LDL ([1]; Patient F-6, atorvastatin 40 mg + Zetia 10 mg + 2 g BID, repeat): 43
CPK ([1]; Patient G-7, statin + 2 g BID, four weeks, range 29-168): 39 IU/L
LDL ([1]; Patient G-7, statin + 2 g BID, four weeks, reduced from 169): 108
symptoms ([1]; Patient G-7, statin resumed + 2 g BID, approximately four weeks): free of all symptoms of myalgia and muscle weakness
symptoms ([1]; Patient H-8, 2 g BID combination, one month): completely asymptomatic
bilateral thigh pain ([1]; Patient J-10, Lipitor 10 mg daily + 2 g BID, one month): complete resolution of bilateral thigh pain
CPK reduction ([1]; Patient K-11, 47 days): 32%
LDL reduction ([1]; Patient K-11, 47 days): 50%
LDL ([1]; Patient K-11, Crestor 20 mg daily + 2 g BID, 47 days, before 282): 139
CPK ([1]; Patient K-11, Crestor 20 mg daily + 2 g BID, 47 days, before 282 (29-168)): 191 IU/L
symptoms ([1]; Patient K-11, exercises near-daily): pain-free
LDL ([1]; Patient L-12, Crestor 5 mg daily + 2 g BID, two months, before 122): 100
triglycerides ([1]; Patient L-12, Crestor 5 mg daily + 2 g BID, two months, before 261): 193
symptoms ([1]; Patient L-12, two months): pain-free
CPK ([1]; Patient L-12, two months, range 29-168): 87 IU/L
LDL ([1]; Patient M-13, Crestor + 2 g BID, four months, before 244): 114
CPK ([1]; Patient M-13, Crestor + 2 g BID, four months, before 320, range 39-308): 210 IU/L
myalgia ([1]; Patient M-13, follow-up five months after enrollment): All myalgia had resolved
CPK reduction ([1]; Patient M-13, four months): 34%
LDL reduction ([1]; Patient M-13, four months): 53%
muscle weakness ([1]; Patient N-14, statin continued + 2 g BID, 13 days): symptoms of muscle weakness had resolved
CPK ([1]; Patient O-15, 2 months post-enrollment, 5 days/week weight program, before 274 (30-200)): 310 IU/L
LDL ([1]; Patient O-15, 2 months post-enrollment, before 30): 53
quadriceps/thigh pain ([1]; Patient O-15, combined statin therapy + 2 g BID, four weeks): complete resolution of all quadriceps/thigh pain
thigh pain ([1]; Patient P-16, simvastatin + 2 g BID, sixteen days, persistent groin stiffness): no longer had any thigh pain
